Broadly, the pEC50 is the negative decadic logarithm of the EC50, by convention in mol/L.

Experimental findings from patent US11230535B2, “CFTR regulators and methods of use thereof” (THE REGENTS OF THE UNIVERSITY OF CALIFORNIA, priority 2015, dated 2022) are described below.

pEC50: −log10 of the molar value. Entries after “also recorded” stand apart in the source; their conditions may differ.

The test system of one data set is rat liver microsomes. In words: In vitro metabolic stability in rat liver microsomes. It counts as in vitro ADME. The conditions noted are these: NADPH. The procedure:
In vitro metabolic stability. Compounds (each 5 μM) were incubated for specified times at 37° C. with rat liver microsomes (1 mg/ml; Sigma-Aldrich) in potassium phosphate buffer containing 1 mM NADPH, as described^14.

Data set [1] has as its target T1, human wild-type CFTR (Homo sapiens, UniProt P13569). In words: Short-circuit current in FRT cells expressing wild-type human CFTR. In kind it is cell-based. Further details: expressed in transfected cells. The procedure:
Short-circuit current was measured in FRT cells stably expressing wild-type human CFTR cultured on porous filters as described. The basolateral solution contained 130 mM NaCl, 2.7 mM KCl, 1.5 mM KH2PO4, 1 mM CaCl2, 0.5 mM MgCl2, 10 mM glucose, and 10 mM Na-HEPES (pH 7.3, 37° C.). In the apical solution 65 mM NaCl was replaced by Na gluconate, and CaCl2 was increased to 2 mM, and the basolateral membrane was permeabilized with 250 μg/ml amphotericin B. Short-circuit current was measured in freshly harvested adult mouse colon at 37° C. using symmetrical Krebs-bicarbonate buffer.
(§1) Fischer rat thyroid (FRT) cells stably expressing wild-type human CFTR were cultured on Snapwell inserts (Corning Costar, Corning N.Y., USA) for short-circuit current (Isc) measurements. After 6-9 days in culture, when the transepithelial resistance was >1000 Ω/cm^2, the inserts were mounted in an Ussing chamber system (World Precision Instruments, Sarasota, Fla., USA). The basolateral solution contained 130 mM NaCl, 2.7 mM KCl, 1.5 mM KH2PO4, 1 mM CaCl2, 0.5 mM MgCl2, 10 mM glucose, and 10 mM Na-HEPES (pH 7.3). In the apical bathing solution, 65 mM NaCl was replaced by Na gluconate, and CaCl2 was increased to 2 mM. Both solutions were bubbled with air and maintained at 37° C. The basolateral membrane was permeabilized with 250 μg/ml amphotericin B (26, 27). Hemichambers were connected to a DVC-1000 voltage clamp via Ag/AgCl electrodes and 3 M KCl agar bridges for Isc recording.
Short-circuit current measurement. Short-circuit current was measured in FRT cells stably expressing wild-type human CFTR cultured on porous filters as described. The basolateral solution contained 130 mM NaCl, 2.7 mM KCl, 1.5 mM KH2PO4, 1 mM CaCl2, 0.5 mM MgCl2, 10 mM glucose, and 10 mM Na-HEPES (pH 7.3, 37° C.). In the apical solution 65 mM NaCl was replaced by Na gluconate, and CaCl2 was increased to 2 mM, and the basolateral membrane was permeabilized with 250 μg/ml amphotericin B. Short-circuit current was measured in freshly harvested adult mouse colon at 37° C. using symmetrical Krebs-bicarbonate buffer.
as §1, with “Short-circuit current. Fischer” for “Fischer”
Short-circuit current measurement. Short-circuit current measurements were done as described. Briefly, Snapwell (Corning Costar, Corning, N.Y.) inserts containing CFTR-expressing FRT cells or human bronchial epithelial cells were mounted in Ussing chambers (Physiological Instruments, San Diego, Calif.). For FRT cells the hemichambers were filled with 5 ml of HCO3^−-buffered solution (basolateral) and half-Cl^− solution (apical), and the basolateral membrane was permeabilized with 250 μg/ml amphotericin B. Symmetrical HCO3^−-buffered solutions were used for human bronchial epithelial cells. Solutions were bubbled with 95% O2/5% CO2 and maintained at 37° C., and short-circuit current was measured on a DVC-1000 voltage clamp (World Precision Instruments Inc., Sarasota, Fla.) using Ag/AgCl electrodes and 3 M KCl agar bridges.

The target of data set [2] is T1, human wild-type CFTR. Kind of data set: Cell-based plate reader (YFP iodide influx) assay of CFTR function. Further details: expressed in transfected cells; host or cells: Fischer rat thyroid (FRT) cells stably co-expressing YFP-H148Q. The method in brief:
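YFP-quenching assay: I⁻ influx is read for 2 s baseline and 12 s after rapid I⁻ addition. The initial influx rate, from exponential regression, is a linear measure of channel function. Plates carry DMSO vehicle and 20 μM forskolin controls.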

Setting [3] is: FRT cells expressing human wild-type CFTR.
The mark [4] stands for this setting: FRT cells expressing human wild-type CFTR, read-out: EC50 for CFTR activation (short-circuit current).

T1 sequence (P13569 whole entry): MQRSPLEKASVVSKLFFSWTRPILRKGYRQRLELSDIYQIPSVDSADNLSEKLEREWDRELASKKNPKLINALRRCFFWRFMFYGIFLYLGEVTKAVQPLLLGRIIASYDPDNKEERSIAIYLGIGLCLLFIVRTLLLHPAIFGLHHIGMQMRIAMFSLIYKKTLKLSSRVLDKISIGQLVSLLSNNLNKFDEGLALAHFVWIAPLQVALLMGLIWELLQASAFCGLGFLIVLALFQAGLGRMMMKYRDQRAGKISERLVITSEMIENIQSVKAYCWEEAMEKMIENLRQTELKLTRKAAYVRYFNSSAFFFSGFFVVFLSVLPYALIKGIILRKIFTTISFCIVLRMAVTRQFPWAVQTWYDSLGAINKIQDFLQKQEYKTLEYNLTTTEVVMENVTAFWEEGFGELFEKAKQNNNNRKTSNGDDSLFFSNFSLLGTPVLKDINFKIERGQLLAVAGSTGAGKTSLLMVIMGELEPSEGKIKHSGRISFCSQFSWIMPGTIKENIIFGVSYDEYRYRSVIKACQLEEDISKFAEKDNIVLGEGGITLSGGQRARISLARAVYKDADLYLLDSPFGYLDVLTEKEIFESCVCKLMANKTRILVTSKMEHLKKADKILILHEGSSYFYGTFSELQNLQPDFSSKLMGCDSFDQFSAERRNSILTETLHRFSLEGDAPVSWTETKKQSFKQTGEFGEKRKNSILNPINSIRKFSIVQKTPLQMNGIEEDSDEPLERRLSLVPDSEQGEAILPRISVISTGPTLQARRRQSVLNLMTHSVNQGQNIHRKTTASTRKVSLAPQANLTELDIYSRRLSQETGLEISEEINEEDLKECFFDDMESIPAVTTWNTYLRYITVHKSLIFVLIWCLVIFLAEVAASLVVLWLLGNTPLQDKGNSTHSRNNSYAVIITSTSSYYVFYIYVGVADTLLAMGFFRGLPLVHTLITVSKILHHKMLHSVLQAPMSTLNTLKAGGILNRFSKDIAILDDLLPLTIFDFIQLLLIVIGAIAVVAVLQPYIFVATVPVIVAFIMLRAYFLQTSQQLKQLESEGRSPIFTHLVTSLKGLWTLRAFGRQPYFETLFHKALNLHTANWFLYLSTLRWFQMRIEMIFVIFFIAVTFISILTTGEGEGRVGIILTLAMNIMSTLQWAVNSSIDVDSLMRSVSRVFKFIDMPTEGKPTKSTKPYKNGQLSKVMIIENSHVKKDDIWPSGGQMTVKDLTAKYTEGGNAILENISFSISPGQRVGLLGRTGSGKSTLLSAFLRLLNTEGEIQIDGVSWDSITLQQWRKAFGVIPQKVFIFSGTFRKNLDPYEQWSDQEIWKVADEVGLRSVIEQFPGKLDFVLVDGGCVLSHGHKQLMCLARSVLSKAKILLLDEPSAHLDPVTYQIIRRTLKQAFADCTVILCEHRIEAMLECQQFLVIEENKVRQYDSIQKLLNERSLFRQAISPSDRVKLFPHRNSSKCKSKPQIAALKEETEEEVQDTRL

In the case of `CCN(CC)c1nc(Nc2ccc3ncsc3c2)nc(OC(C(F)(F)F)C(F)(F)F)n1` [6k, N′-(1,3-Benzothiazol-6-yl)-N,N-diethyl-6-[(1,1,1,3,3,3-hexafluoropropan-2-yl)oxy]-1,3,5-triazine-2,4-diamine], the “original compound remaining at 60 min” value in the data set with rat liver microsomes (5 μM, rat hepatic microsomes) is listed as roughly 60%. Also, the “metabolic stability in hepatic microsomes, in words” value (shortened to “metabolic stability”) in the data set on rat liver microsomes is on record as “metabolized slowly; also recorded: substantially greater in vitro metabolic stability than 1 or 12”. Besides, the “CFTR activation (short-circuit current), in words” value (“CFTR activation … in words” for short) on human wild-type CFTR [1] (setting [3]) is listed as “full CFTR activation”. Besides, the pEC50 at human wild-type CFTR [1] (setting [4]) is 7.52; at human wild-type CFTR [2], roughly 7.30; on human wild-type CFTR [2] (bicyclic aniline analogs, read-out: EC50), 7.30. Besides, the “fold increase in potency over benzoxazole 6j” value on human wild-type CFTR [2] was roughly 3 fold.

Turning to `Nc1ccc([N+](=O)[O-])cc1-c1nc2ccccc2n(Cc2ccccc2)c1=O` [CFTRact-J027, 3-(2-amino-5-nitrophenyl)-1-benzylquinoxalin-2(1H)-one], at human wild-type CFTR [1] (3 μM, wild-type CFTR, FRT cells), the “activation of CFTR at 3 μM” value is listed as “nearly full activation”. Further, the “CFTR activation … in words” value at human wild-type CFTR [1] (setting [3]) was “fully activated CFTR chloride conductance”.

On to `CCN(CC)c1nc(Nc2ccccc2)nc(OC(C(F)(F)F)C(F)(F)F)n1` [CFTRact-K089, N,N-Diethyl-6-[(1,1,1,3,3,3-hexafluoropropan-2-yl)oxy]-N′-phenyl-1,3,5-triazine-2,4-diamine], for which the “metabolic stability” value in the data set with rat liver microsomes is listed as “metabolized rapidly”. Also, at human wild-type CFTR [1] (100% = 20 μM forskolin), the “CFTR activation, Vmax” value is given as roughly 50 % Vmax. The “CFTR activation … in words” value at human wild-type CFTR [1] (setting [3]) is listed as “fully activated CFTR”. Besides, the pEC50 at human wild-type CFTR [1] (setting [4]) is roughly 6.60; at human wild-type CFTR [2] (N,N-diethyl-N′-aryl-1,3,5-triazine diamine analogs, read-out: EC50 for CFTR activation) it was 6.62; at human wild-type CFTR [2] (commercial analogs, read-out: EC50 (full-dose response assay, compounds >80% activation)), 6.60. Also, at human wild-type CFTR [2] (commercial analogs, FRT cells with YFP and wildtype CFTR, 125 nM forskolin), the “% Activation” value worked out at 111%.

For the compound `CC(C)(C)c1cc(C(C)(C)C)c(NC(=O)c2c[nH]c3ccccc3c2=O)cc1O` [VX-770, reference compound], on human wild-type CFTR [1] (setting [3]), the “CFTR activation … in words” value was “relatively little activity; also recorded: relatively weak activity”.

Regarding `CNc1nc(Nc2ccccc2)nc(OCC(F)(F)C(F)F)n1` [compound 12, N-methyl-N′-phenyl-6-(2,2,3,3-tetrafluoropropoxy)-1,3,5-triazine-2,4-diamine], the “metabolic stability” value in the data set with rat liver microsomes is “rapidly metabolized by hepatic microsomes”. Moreover, the pEC50 was roughly 7.52 on human wild-type CFTR [1]; 7.51 on human wild-type CFTR [1] (setting [4]); 7.40 on human wild-type CFTR [2] (N-methyl-N′-phenyl-1,3,5-triazine diamine analogs, read-out: EC50). Further, the “CFTR activation … in words” value at human wild-type CFTR [1] (setting [3]) is reported as “fully activated CFTR chloride conductance; also recorded: full CFTR activation”. Moreover, on human wild-type CFTR [2], the “fold better EC50 than diethylamine analog 6a” value is listed as roughly 50 fold. In addition, the “fold more potent than hexafluoropropanol analog 11” value at human wild-type CFTR [2] is roughly 3 fold.
